In one test the target is T1, MAGL (Homo sapiens, UniProt Q99685).
T1 sequence (Q99685 1-303): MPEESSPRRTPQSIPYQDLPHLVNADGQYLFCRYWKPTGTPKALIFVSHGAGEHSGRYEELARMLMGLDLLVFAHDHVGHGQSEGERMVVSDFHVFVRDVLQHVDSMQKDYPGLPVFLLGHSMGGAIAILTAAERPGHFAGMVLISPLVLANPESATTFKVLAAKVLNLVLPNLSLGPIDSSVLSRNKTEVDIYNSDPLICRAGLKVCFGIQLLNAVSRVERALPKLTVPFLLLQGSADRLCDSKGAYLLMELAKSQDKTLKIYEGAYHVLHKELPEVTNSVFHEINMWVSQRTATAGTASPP
The test is described as follows: Native MS (RapidFire) 2-AG substrate assay, purified human MAGL. Format: biochemical. As to conditions: SI Table 1; read-out: IC50 against purified MAGL ± SEM, Human. The method, then: (§1) In vitro MAGL Inhibition Assay
(§2) Compounds were profiled for MAGL inhibitory activity by determining the enzymatic activity by following the hydrolysis of the natural substrate 2-arachidonoylglycerol (2-AG), resulting in arachidonic acid, which can be followed by mass spectrometry. The 2-AG assay was carried out in 384 well assay plates (PP, Greiner Cat# 784201) in a total volume of 20 µL. Compound dilutions were made in 100% DMSO (VWR Chemicals 23500.297) in a polypropylene plate in 3-fold dilution steps to give a final concentration range in the assay from 12.5 µM to 0.8 pM. 0.25µL compound dilutions (100% DMSO) were added to 9 µL MAGL in assay buffer (50 mM TRIS (GIBCO, 15567-027), 1 mM EDTA (Fluka, 03690-100 mL), 0.01% (v/v) Tween. After shaking, the plate was incubated for 15 min at RT. To start the reaction, 10 µL 2-arachidonoylglycerol in assay buffer was added. The final concentrations in the assay were 50 pM MAGL and 8 µM 2-arachidonoylglyerol. After shaking and 30 min incubation at RT, the reaction was quenched by the addition of 40µL of ACN containing 4µM of d8-arachidonic acid. The amount of arachidonic acid was traced by an online SPE system (Agilent Rapidfire) coupled to a triple quadrupole mass spectrometer (Agilent 6460). A C18 SPE cartridge (G9205A) was used in an ACN/water liquid setup. The mass spectrometer was operated in negative electrospray mode following the mass transitions 303.1 → 259.1 for arachidonic acid and 311.1 → 267.0 for d8-arachidonic acid. The activity of the compounds was calculated based on the ratio of intensities [arachidonic acid / d8-arachidonic acid]. The lowest IC50 value that can be determined with high accuracy is approximately 0.025 nM.

Test [1] deals with NanoLuc luciferase MAGL fusion protein. In words: Cellular MAGL NanoBRET target engagement assay in live HEK293 cells. Format: cell-based. As to conditions: SI Table 1, live HEK293 cells; read-out: NanoBRET IC50 ± SEM, HEK293. How it is done: This assay was performed as first described before.20
Compounds were profiled by a novel cellular MAGL NanoBRET™ Target Engagement assay, which measures the apparent affinity of test compounds by competitive displacement of a Roche -developed Tracer (WO2021058443, Example 2 121, or probe 4a, respectively), reversibly bound to a NanoLuc ® luciferase MAGL fusion protein in cells.
A HEK293A stable cell line expressing NanoLuc_MAGL was established at Roche and assigned as HEK293A_NanoLuc_MAGL clone #43. A fixed concentration of tracer is added to cells expressing the NanoLuc®_MAGL fusion protein to generate a BRET reporter complex. The introduction of competing compounds results in a dose -dependent decrease in NanoBRET™ energy transfer, which allows quantification of the intracellular affinity of the target protein for the test compound.
HEK293A_NanoLuc_MAGL clone #43 cells were cultured in DMEM (Gibco 31966) with 10% FBS and 800 ug/ml G418. The NanoBRET assay was performed by seeding 5000 cells/well in Costar low - volume white 384-well plate in assay buffer (1% FBS in HBSS), followed by adding the tracer (50 nM Example 21 or 100 nM 4a final concentration) and serial dilutions of test compounds. After 2 hours of incubation, Nanoluciferase substrates and extracellular inhibitors were added following the manufacturer's protocol (Promega, #N2520), and the NanoBRET signaling were quantified with the Paradigm (Molecular Devices).

Another test concerns the target T2, mMAGL (Mus musculus, UniProt O35678).
T2 sequence (O35678 1-303): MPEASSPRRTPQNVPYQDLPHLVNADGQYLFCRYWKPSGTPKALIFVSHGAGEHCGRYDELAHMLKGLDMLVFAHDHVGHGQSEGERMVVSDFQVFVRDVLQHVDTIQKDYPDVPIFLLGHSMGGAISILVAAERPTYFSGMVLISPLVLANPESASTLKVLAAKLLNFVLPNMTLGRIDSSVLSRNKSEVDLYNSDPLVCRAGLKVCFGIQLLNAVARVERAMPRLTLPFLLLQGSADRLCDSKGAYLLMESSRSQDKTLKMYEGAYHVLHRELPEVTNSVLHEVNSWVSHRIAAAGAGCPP
The test is described as follows: Native MS (RapidFire) 2-AG substrate assay, purified mouse MAGL. Type of test: biochemical. The note with it: SI Table 1; read-out: IC50 against purified MAGL ± SEM, Mouse. The method, then:
as §1, §2

The target in another test is T3, cMAGL (Macaca fascicularis, UniProt A0A2K5V664).
T3 sequence (A0A2K5V664 11-297): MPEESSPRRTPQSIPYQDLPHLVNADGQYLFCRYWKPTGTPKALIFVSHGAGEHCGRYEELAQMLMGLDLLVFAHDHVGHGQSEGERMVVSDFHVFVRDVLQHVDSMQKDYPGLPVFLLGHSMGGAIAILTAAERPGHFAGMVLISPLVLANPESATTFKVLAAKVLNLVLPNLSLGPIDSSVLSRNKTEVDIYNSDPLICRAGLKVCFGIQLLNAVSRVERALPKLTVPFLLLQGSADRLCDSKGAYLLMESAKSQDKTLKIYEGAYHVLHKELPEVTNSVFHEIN
The test is described as follows: Native MS (RapidFire) 2-AG substrate assay, purified cynomolgus monkey MAGL. Type of test: biochemical. The note with it: SI Table 1; read-out: IC50 against purified MAGL ± SEM, Cynomolgus. How it is done: as §1, §2

The target in the next test is T4, rMAGL (Rattus norvegicus, UniProt Q8R431).
T4 sequence (Q8R431 1-303): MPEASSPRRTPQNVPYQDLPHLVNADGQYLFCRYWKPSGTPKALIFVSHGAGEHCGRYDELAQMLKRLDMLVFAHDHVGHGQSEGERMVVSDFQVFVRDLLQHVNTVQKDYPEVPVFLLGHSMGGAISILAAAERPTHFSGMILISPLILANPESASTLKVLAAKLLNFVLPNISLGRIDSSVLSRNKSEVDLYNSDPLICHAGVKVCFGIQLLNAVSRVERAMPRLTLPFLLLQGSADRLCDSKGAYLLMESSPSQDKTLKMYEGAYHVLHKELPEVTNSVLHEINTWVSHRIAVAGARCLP
In words: Native MS (RapidFire) 2-AG substrate assay, purified rat MAGL. Format: biochemical. The note with it: SI Table 1; read-out: IC50 against purified MAGL ± SEM, Rat. How it is done:
as §1, §2

Regarding `O=C1NC2(CO1)CN(C(=O)N1CC3(CC(=CC4=C5C=CC=[N+]5[B-](F)(F)n5cccc54)C3)C1)C2` [Compound S14], the IC50 was 12.6 nM at MAGL, over 10000 nM in test [1] and 12.4 nM at mMAGL.
The like results for `O=C1NC2(CO1)CN(C(=O)N1CCC3(CC1)CC(OC1=C4C=CC=[N+]4[B-](F)(F)n4cccc41)C3)C2` [Compound S8] were, in that order, 3.99 nM, over 10000 nM and 13.6 nM.
The like results for `O=C1CO[C@H]2CCN(C(=O)N3CC4(CC(=CC5=C6C=CC=[N+]6[B-](F)(F)n6cccc65)C4)C3)C[C@H]2N1` [Compound S13] were, in that order, 43.3 nM, over 10000 nM and 182 nM.
With `O=C1CO[C@H]2CCN(C(=O)N3CC4(CCC(CC5=C6C=CC=[N+]6[B-](F)(F)n6cccc65)CC4)C3)C[C@H]2N1` [Compound S12], the IC50 on MAGL was determined as 2.35 nM; on cMAGL it was 2.73 nM; in test [1], 564 nM; at rMAGL, 10.9 nM; on mMAGL, 12.4 nM.
As for `O=C1CO[C@H]2CCN(C(=O)N3CCC4(CC3)CC(OC3=C5C=CC=[N+]5[B-](F)(F)n5cccc53)C4)C[C@H]2N1` [Compound S6], the IC50 on MAGL is 45 nM; in test [1] it was over 10000 nM; at mMAGL, 170 nM.
The corresponding values for `O=C1COc2ccc(C(=O)N3CC4(CC(CC5=C6C=CC=[N+]6[B-](F)(F)n6cccc65)C4)C3)cc2N1` [Compound S19] are 7.5 nM, 299 nM and 18.6 nM.
On to `O=C1NC2(CO1)CN(C(=O)N1CC3(CC(CC4=C5C=CC=[N+]5[B-](F)(F)n5cccc54)C3)C1)C2` [Compound S15], for which the IC50 at MAGL stood at 1.26 nM; at cMAGL, 3.27 nM; in test [1], 5540 nM; on rMAGL, 4.46 nM; on mMAGL, 1.36 nM.
The like results for `O=C1CO[C@H]2CCN(C(=O)N3CC4(CCC(OC5=C6C=CC=[N+]6[B-](F)(F)n6cccc65)CC4)C3)C[C@H]2N1` [Compound S4] were, in that order, 3.82 ± 1.91 nM, 8.37 nM, 4630 ± 52 nM, 21.6 nM and 7.06 ± 4.73 nM.
Turning to `O=C1CO[C@H]2CCN(C(=O)N3C[C@@H]4[C@@H](COC5=C6C=CC=[N+]6[B-](F)(F)n6cccc65)[C@@H]4C3)C[C@H]2N1` [Compound S3], the IC50 at MAGL was 500 nM; in test [1] it was over 10000 nM; on mMAGL, 1040 nM.
The like results for `O=C1N[C@H](CCC(=O)N2CC3(CC(CC4=C5C=CC=[N+]5[B-](F)(F)n5cccc54)C3)C2)CO1` [Compound S17] were, in that order, 1.01 nM, 300 nM and 0.84 nM.
The corresponding values for `O=C1CO[C@H]2CCN(C(=O)N3CC4(CC(CC5=C6C=CC(c7ccccc7)=[N+]6[B-](F)(F)n6cccc65)C4)C3)C[C@H]2N1` [Compound S22] are 0.66 nM, 56 ± 6 nM and 0.37 nM.
Turning to `Cc1ccc2oc(N3CCN(C(=O)N4CC5(CC(CC6=C7C=CC=[N+]7[B-](F)(F)n7cccc76)C5)C4)CC3)nc2n1` [Compound S20], the IC50 on MAGL is 17.2 nM; in test [1] it was over 10000 nM; at mMAGL, 108 nM.
The like results for `NC(=O)[C@H]1CCN(C(=O)N2CC3(CC(CC4=C5C=CC=[N+]5[B-](F)(F)n5cccc54)C3)C2)C1` [Compound S18] were, in that order, 1.98 nM, 1940 nM and 2.07 nM.
The like results for `O=C1NC2(CO1)CN(C(=O)N1CC3(CCC(=CC4=C5C=CC=[N+]5[B-](F)(F)n5cccc54)CC3)C1)C2` [Compound S16] were, in that order, 0.67 nM, 574 nM and 0.81 nM.
The like results for `O=C1CO[C@H]2CCN(C(=O)N3CCC(=CC4=C5C=CC=[N+]5[B-](F)(F)n5cccc54)CC3)C[C@H]2N1` [Compound S10] were, in that order, 1680 nM, over 10000 nM and 3400 nM.
